Data published in ChEMBL document CHEMBL1641601, “Design, synthesis, and testing of an 6-O-linked series of benzimidazole based inhibitors of CDK5/p25” (Bioorg Med Chem, 2011).

Target: Cyclin-dependent kinase 5/CDK5 activator 1 (Homo sapiens, UniProt Q00535)
Assay: Inhibition of CDK5/P25 GST-fusion protein assessed as substrate histone H1 phosphorylation by scintillation counting
Type: protein-complex assay

Cyclin-dependent kinase 5/CDK5 activator 1, sequence (Q00535 whole entry, the tested form may be a part): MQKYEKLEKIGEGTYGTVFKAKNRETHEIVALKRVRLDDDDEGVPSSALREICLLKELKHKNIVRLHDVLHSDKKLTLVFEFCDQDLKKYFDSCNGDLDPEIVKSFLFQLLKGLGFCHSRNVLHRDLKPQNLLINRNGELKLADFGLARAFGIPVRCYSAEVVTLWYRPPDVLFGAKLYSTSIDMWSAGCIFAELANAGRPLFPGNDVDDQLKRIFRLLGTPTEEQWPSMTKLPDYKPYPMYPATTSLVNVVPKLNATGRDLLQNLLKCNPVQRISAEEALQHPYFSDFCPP
Cyclin-dependent kinase 5/CDK5 activator 1, sequence (Q15078 whole entry, further chain, the tested form may be a part): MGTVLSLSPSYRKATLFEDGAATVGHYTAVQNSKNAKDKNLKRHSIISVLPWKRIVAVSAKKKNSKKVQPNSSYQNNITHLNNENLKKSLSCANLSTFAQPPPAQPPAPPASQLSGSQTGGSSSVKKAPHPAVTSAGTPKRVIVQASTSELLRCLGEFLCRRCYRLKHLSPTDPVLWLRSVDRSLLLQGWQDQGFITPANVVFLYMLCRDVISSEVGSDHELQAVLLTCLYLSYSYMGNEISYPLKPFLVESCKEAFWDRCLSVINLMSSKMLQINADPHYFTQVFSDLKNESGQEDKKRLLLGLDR

SMILES	IC50
COc1cc(NCc2ccccc2)c2ncn(C(C)C)c2c1	> 10 µM
CCC(CO)Oc1cc(NCc2ccccc2)c2ncn(C(C)C)c2c1 (configuration not stated)	13 µM
CCOc1cc(NCc2ccccc2)c2ncn(C(C)C)c2c1	> 100 µM
CCCOc1cc(NCc2ccccc2)c2ncn(C(C)C)c2c1	> 100 µM
CCCCOc1cc(NCc2ccccc2)c2ncn(C(C)C)c2c1	> 100 µM
COCCOc1cc(NCc2ccccc2)c2ncn(C(C)C)c2c1	> 100 µM
CCC(CN(C)C)Oc1cc(NCc2ccccc2)c2ncn(C(C)C)c2c1 (configuration not stated)	> 100 µM
CC(C)n1cnc2c(NCc3ccccc3)cc(OCC3CCN(C)CC3)cc21	> 100 µM
CCC(COC)Oc1cc(NCc2ccccc2)c2ncn(C(C)C)c2c1 (configuration not stated)	> 10 µM
CC(C)n1cnc2c(NCc3ccccc3)cc(OCCO)cc21	> 100 µM
CCC(O)COc1cc(NCc2ccccc2)c2ncn(C(C)C)c2c1 (configuration not stated)	> 100 µM
CC(C)n1cnc2c(NCc3ccccc3)cc(OCC3CCNCC3)cc21	> 100 µM
